Laboratory results reported in patent publication EP2535049A1 (Proyecto de Biomedicina Cima, S.L., priority 2011, dated 2012).
Values joined by “and” are separate entries in the source; they are usually repeats but may differ in a detail not shown here. Identical values can stand only once. “Also recorded” adds a separate entry of the source. Marks after values point to notes of the source that are not given here.

Key:
pTau = assay: Immunohistochemistry of pTau (PHF-1, AT8) in J20 mice; assay type: in vivo; conditions: J20 mice treated for 10 weeks
Method: Results were compared with those obtained from age-matched negative littermates (controls). To test the effect of the PDE5 inhibitors in cognition capacity related to aging, a second treatment was carried out using 10-12 month-old non-transgenic (wild type) mice on an inbred C57/B6xSJL genetic background.
Twenty four hours after the fear conditioning test, animals (n=5, per group) were sacrificed and the brains removed for biochemical studies. The cortex and hippocampus were dissected, homogenized, and processed as described below for subsequent western blot analysis. Under xylazine/ketamine anesthesia, animals (n=4 per group) were perfused transcardially with saline and 4% paraformaldehyde in phosphate buffer (PB). After perfusion, brains were removed, post-fixed in the same fixative solution for 1 h at room temperature and cryoprotected in 30% sucrose solution in PB overnight at 4 °C. […]
For p-tau staining, slides were incubated in blocking solution (3% milk in TBS) and incubated overnight with primary antibody AT8 (1:50 v/v, Pierce, Woburn, MA, USA) or PHF1 (1:100 v/v, Dr. Peter Davies, Albert Einstein College, Bronx, NY, USA) at 4 °C. […] Fluorescence signals were detected with confocal microscope LSM 510 Meta (Carl Zeiss, Germany); objective Plan-neofluar 40x/1.3 oil DIC. Sections were evaluated in Z-series (0.4 microm steps) using LSM 510 Meta software.

[1] = tested on: rat model of embolic stroke; conditions: Zhang et al. (2006); cited from earlier work
[2] = Serum and brain levels of tadalafil after oral administration (HPLC-MS); assay type: in vivo, Mouse; conditions: for logBB (brain): average of logBB data from Ctx, Str and Hip, n=6, spread = Standard Deviation
Method: BB is the ratio of brain versus serum concentration. […] In addition, considering values in the three brain regions, the compound distribution looks quite uniform. Table 2. Blood-brain barrier permeability, as logBB, for Tadalafil
For analysis samples were prepared as follows: • 100 µl of serum were treated with 300 µl of 1% formic acid in acetonitrile. Mixture was vortexed for 5 minutes. The supernatant after centrifugation was filtered using a HybridSPE™ (Supelco, Bellefonte, USA) cartridge and the eluate was dried under an air stream. The powder was reconstituted in 100 µl of 50:50 (v/v) ammonium formate (pH=3):acetonitrile. After centrifugation the supernatant was used for analysis. • 100 mg of brain sample were treated with 600 µl of 1% formic acid in acetonitrile. The mixture was sonicated for 10 seconds and centrifuged for 5 minutes. The supernatant after centrifugation was filtered using a HybridSPE™ (Supelco, Bellefonte, USA) cartridge and the eluate was dried under an air stream. The powder was reconstituted in 100 µl of 50:50 (v/v) ammonium formate (pH=3):acetonitrile. After centrifugation the supernatant was used for analysis.

[3] = BB = ratio of brain versus serum concentration, n=6 treated mice, (Standard Deviation)
[4] = concentration of tadalafil 90 minutes after oral administration of Cialis (15 mg/Kg), individual mice

## CN1CC(=O)N2[C@H](c3ccc4c(c3)OCO4)c3[nH]c4ccccc4c3C[C@@H]2C1=O [tadalafil, (6R-trans)-6-(1,3-benzodioxol-5-yl)-2,3,6,7,12,12a-hexahydro-2-methyl-pyrazino [1',2':1,6] pyrido [3,4-b]indole-1,4-dione]
pTau; hippocampal and cortical slices
  pTau levels, PHF-1 anti-p-Tau Ser-396/404 antibody labeling: decrease in pTau levels; also recorded: much more marked than in animals treated with sildenafil
pTau; hippocampus slices
  pTau pathology, anti-pTau antibody recognizing Ser202 and Thr205 (AT8) labeling: lesser pTau pathology in animals treated with tadalafil than with sildenafil
[1]
  neurological functional recovery: improves neurological functional recovery
[2]; [3]
  logBB (Ctx): -0.89 (0.16)^b
  logBB (Hip): -0.81 (0.17)^b
  logBB (Str): -0.98 (0.13)^b
[2]; Hippocampus, 90 minutes after oral administration of Cialis (15 mg/Kg), individual mice
  Hip: 0.45 µM and 0.91 µM and 1.54 µM and 2.19 µM and 1.48 µM and 1.35 µM
[2]; Prefrontal Cortex, 90 minutes after oral administration of Cialis (15 mg/Kg), individual mice
  Ctx: 0.61 µM and 1.25 µM and 1.22 µM and 1.35 µM and 0.73 µM and 0.91 µM
[2]; Striatum, 90 minutes after oral administration of Cialis (15 mg/Kg), individual mice
  Str: 0.39 µM and 0.82 µM and 1.09 µM (2×) and 0.72 µM and 0.93 µM
[2]
  logBB (brain): -0.89+/-0.09
[2]; listed as Tadalafil
  logBB (brain): -0.89 (0.09)^b
[2]; [4]
  Serum (µM): 4,95 µM
  concentration at 90 min: 9.65 µM and 7.27 µM and 10.23 µM and 8.10 µM
[2]; mouse, oral, 15 mg/Kg, from logBB of the three brain areas
  Kp at 90 min: ~0.12
[2]; mouse, serum, oral, 15 mg/Kg, concentration of tadalafil 90 minutes after oral administration of Cialis (15 mg/Kg), individual mice
  concentration at 90 min: 6.53 µM
